Reference: patent publication US20070167377A1, “Inhibitors of glycinamide ribonucleotide transformylase” (priority 2002, published 2007)
Entries after “also recorded” stand apart in the source; their conditions may differ. Where two headings read alike, the source gives them in different places.

Tests used:
[1] = biological target: T1, E. coli GAR Tfase (Escherichia coli, UniProt P08179); assay: E. coli GAR Tfase inhibition; assay type: biochemical; conditions: for Ki: E. coli GAR Tfase
Experimental: (§1) GAR and AICAR Tfase inhibition studies were conducted as previously detailed^28 with the exception that the AICAR Tfase inhibition was conducted in the absence of 5 mM β-mercaptoethanol and screened with 10 nM enzyme, […] inhibitor and […] of cofactor. The DHFR inhibition study was conducted as previously detailed with 10 nM enzyme, […] H2F, […] NADPH and […] inhibitor.
The Ki values for the folate analogues were measured as previously described (Boger, D. L., et al., Bioorg. Med. Chem. 1997, 5, 1817-1830). Briefly, each compound was dissolved in dimethyl sulfoxide (DMSO) and then diluted in assay buffer. […] Thus, all assays were conducted by mixing 10 μM 10-formyl-5,8-dideazafolate (fDDF), 20 μM inhibitor in total volume of 1 mL buffer (0.1 M HEPES, pH 7.5) at 26° C., and the reaction initiated by the addition of 76 nM E. coli or human GAR Tfase. The assay monitors the deformylation of fDDF (Δε=18.9 mM^−1 cm^−1 at 295 nm) resulting from the transfer of the formyl group to β-GAR.

[2] = biological target: T2, recombinant human GAR Tfase (rhGAR Tfase) (Homo sapiens, UniProt P22102); assay: Recombinant human GAR Tfase inhibition; assay type: biochemical
T2 construct: includes residues 808-1010 from the human trifunctional enzyme (purD-purM-purN); hexa-histidine (C); made in house; host or cells: E. coli BL21 (DE3) Gold, pet22b vector
T2 sequence (P22102 808-1010): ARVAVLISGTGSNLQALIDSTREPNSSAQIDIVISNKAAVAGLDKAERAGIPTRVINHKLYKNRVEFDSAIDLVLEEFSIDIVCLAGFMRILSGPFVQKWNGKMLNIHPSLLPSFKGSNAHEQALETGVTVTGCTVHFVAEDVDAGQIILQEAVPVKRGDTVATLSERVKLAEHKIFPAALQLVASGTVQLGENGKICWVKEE
Experimental: The gene was subcloned into the pet22b vector using the Ndel/Xhol cloning site with ahexa-histidine tag at the C-terminus. The plasmid was transformed into the E. coli expression strain BL21 (DE3) Gold. […] The purified protein was used in the inhibition assays, cytotoxic assays and crystallization experiments.
Briefly, each compound was dissolved in dimethyl sulfoxide (DMSO) and then diluted in assay buffer.

[3] = system: CCRF-CEM cell line; assay: CCRF-CEM cytotoxic assay; assay type: cell-based, human; conditions: for IC50: Homo sapiens; for cytotoxic activity (in words): media supplemented with a purine
Experimental: (§2) The cytotoxic activity of the compounds was measured using CCRF-CEM human leukemia cells, as described previously (Boger, D. L., et al., Bioorg. Med. Chem. 1997, 5, 1847-1852). Two mutant cell lines, CCRF-CEM/MTX and CCRF-CEM/FPGS^− were used to determine the dependence on the reduced folate active transport system and folylpolyglutamate synthetase (FPGS), respectively (Jansen, G., et al., Cancer Res. 1989, 49, 2455-2459).

[4] = system: CCRF-CEM/MTX cell line; assay: Cytotoxic assay, reduced folate carrier deficient mutant; assay type: cell-based, human; conditions: impaired reduced folate carrier; for IC50: Homo sapiens
Experimental: as §2

[5] = system: CCRF-CEM/FPGS^− cell line; assay: Cytotoxic assay, FPGS deficient mutant; assay type: cell-based, human; conditions: lacks folylpolyglutamate synthase
Experimental: as §2

[6] = Chemical stability; assay type: physicochemical
[7] = biological target: human AICAR Tfase (Homo sapiens, UniProt P31939); assay: AICAR Tfase inhibition; assay type: biochemical; conditions: for Ki: AICAR Tfase
Experimental: as §1

[8] = biological target: DHFR (Escherichia coli, UniProt P0ABQ4); assay: DHFR inhibition (101, 102); assay type: biochemical; conditions: for Ki: DHFR
[9] = biological target: thymidylate synthetase (TS) (Homo sapiens, UniProt P04818); assay: Thymidylate synthetase inhibition; assay type: biochemical; conditions: for Ki: TS
[10] = Solubility; assay type: physicochemical; conditions: pH 7-8
[11] = biological target: T1, E. coli GAR Tfase; conditions: 10-formyl-TDAF, earlier studies; cited from earlier work
[12] = system: CCRF-CEM cell line; conditions: earlier studies; cited from earlier work
[13] = earlier studies; cited from earlier work
[14] = purines (hypoxanthine) absent in the media

Structure (SMILES) | IC50 [3, 14] | IC50 [4] | cytotoxic activity (in words) [4] | cytotoxic activity (in words) [5] | inhibition of AICAR Tfase (in words) [7] | IC50 ([3]; purines absent in the media) | further results
Nc1nc(N)c(CCCC(C=O)c2ccc(C(=O)N[C@@H](CCC(=O)O)C(=O)O)cc2)c(=O)[nH]1 (stereo partly shown) [Compound 3] | 60 nM | > 100000 nM | lack of cytotoxic activity; also recorded: lost activity | inactivity; also recorded: lost cytotoxic activity | – | – | Ki [1]: 6000 nM; Ki [2]: 14 nM; cytotoxic activity (in words) [3]: no activity; chemical stability (in words) [6]: chemical instability; also recorded: facile oxidative decarbonylation
Nc1nc(N)c(CCCC(=O)c2ccc(C(=O)N[C@@H](CCC(=O)O)C(=O)O)cc2)c(=O)[nH]1 [Compound 14, N-{4-[4-(2,4-Diamino-6(1H)-pyrimidinon-5-yl)-1-oxo-but-1-yl]benzoyl}-L-glutamic Acid] | – | > 100000 nM | lack of cytotoxic activity | inactivity | inactive | < 200 nM | inhibition of / binding affinity for E. coli GAR Tfase (in words) [1]: significantly less active
CN(C)N=CC(CCCc1c(N)nc(N)[nH]c1=O)c1ccc(C(=O)N[C@@H](CCC(=O)O)C(=O)O)cc1 (stereo partly drawn) [Compound 15, N{4-[5-(2,4-Diamino-6(1H)-pyrimidinon-5-yl)-1-(dimethylhydrazono)pent-2-yl]benzoyl}-L-glutamic Acid] | – | > 100000 nM | lack of cytotoxic activity | inactivity; also recorded: lost cytotoxic activity | – | – | Ki ([2]; rhGAR Tfase, read-out: Ki): 170 nM; fold less effective than 3 ([7]; 15 vs 3): 30 fold
Nc1nc(N)c(CCCC(CO)c2ccc(C(=O)N[C@@H](CCC(=O)O)C(=O)O)cc2)c(=O)[nH]1 (stereo partly drawn) [Compound 17, N-{4-[5-(2,4-Diamino-6(1H)-pyrimidinon-5-yl)-1-hydroxypent-2-yl]benzoyl}-L-glutamic Acid] | – | > 100000 nM | lack of cytotoxic activity | inactivity | inactive | – | inhibition of / binding affinity for E. coli GAR Tfase (in words) [1]: significantly less active
Nc1nc(N)c(CCCC(C(=O)C(F)(F)F)c2ccc(C(=O)N[C@@H](CCC(=O)O)C(=O)O)cc2)c(=O)[nH]1 (stereo partly drawn) [Compound 101, N-{4-[4-(2,4-Diamino-6-oxo-1,6-dihydropyrimidin-5-yl)-1-(2,2,2-trifluoroacetyl)butyl]benzoyl}-L-glutamic acid] | 16 nM | – | lost activity | lacked or lost activity | inactivity; also recorded: inactive | – | Ki [1]: 1900 nM; Ki [7]: > 100000 nM; inhibition of DHFR (in words) [8]: inactive; Ki [8]: > 100000 nM; inhibition of TS (in words) [9]: inactive; Ki [9]: > 100000 nM; IC50 ([3]; in the presence of media purines): > 100000 nM; chemical stability (in words) [6]: chemically stable; stability at pH 7-8 ([6]; pH 7-8 buffers in the presence of air, 7 days): excellent; also recorded: no decomposition or reaction; solubility [10]: excellent
Nc1nc(N)c(CCCC(c2ccc(C(=O)N[C@@H](CCC(=O)O)C(=O)O)cc2)C(O)C(F)(F)F)c(=O)[nH]1 (stereo partly drawn) [Compound 102, N-{4-[4-(2,4-Diamino-6-oxo-1,6-dihydropyrimidin-5-yl)-1-(2,2,2-trifluoro-1-hydroxy-ethyl)butyl]benzoyl}-L-glutamic acid] | – | – | lost activity | lacked or lost activity | inactivity | 1100 nM | times less potent than 10-CF3CO-DDACTHF ([2]; comparator 101): ca. 50 times; Ki ([2]; rhGAR Tfase, read-out: Ki): 900 nM; Ki [7]: > 100000 nM; Ki [8]: > 100000 nM; Ki [9]: > 100000 nM
Nc1nc2ccc(CC(C=O)c3ccc(C(=O)N[C@@H](CCC(=O)O)C(=O)O)cc3)cc2c(=O)[nH]1 (stereo partly shown) [Compound 103, 10-formyl-5,8,10-trideazafolic acid] | – | – | – | – | – | – | Ki [11]: 260 nM; cytotoxic activity (in words) [12]: failed to exhibit effective cytotoxic activity; chemical stability (in words) [13]: poor stability; also recorded: facile oxidative decarbonylation
Nc1nc2c(c(=O)[nH]1)C[C@@H](CCc1ccc(C(=O)N[C@@H](CCC(=O)O)C(=O)O)cc1)CN2 [Lometrexol, (6R)-5,10-dideazatetrahydrofolate, reference compound] | 230 nM | – | lost activity | lacked or lost activity | – | 150 nM | cytotoxic activity (in words) [3]: no activity
